From PubChem BioAssay AID248 (DTP/NCI, 2004)
Values joined by “and” are separate entries in the source; they are usually repeats but may differ in a detail not shown here. Identical values can stand only once. Inconclusive results and toxic doses are left out. Rule as the data show it: active = T/C of 150% or more; inactive = T/C below 125%.

System: L1210 leukemia ip in BDF1 mice, survival T/C
Assay: NCI In Vivo Anticancer Drug Screen. Data for tumor model L1210 Leukemia (intraperitoneal) in B6D2F1 (BDF1) mice
Conditions: endpoint: mean survival time, higher = longer survival
Procedure, shortened: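 Transplanted-tumor mice were given test agent; controls received vehicle only. Survival readings from the two groups were divided (treated over control).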

[1] = dose: 100.0 mg/kg/injection, schedule: Q04DX003 (ip), vehicle: Klucel (hydroxypropylcellulose) (HPC)
[2] = dose: 200.0 mg/kg/injection, schedule: Q04DX003 (ip), vehicle: Klucel (hydroxypropylcellulose) (HPC)
[3] = dose: 400.0 mg/kg/injection, schedule: Q04DX003 (ip), vehicle: Klucel (hydroxypropylcellulose) (HPC)
[4] = dose: 100.0 mg/kg/injection, schedule: Q01DX001 (ip), vehicle: saline
[5] = dose: 200.0 mg/kg/injection, schedule: Q01DX001 (ip), vehicle: saline
[6] = dose: 400.0 mg/kg/injection, schedule: Q01DX001 (ip), vehicle: saline
[7] = dose: 100.0 mg/kg/injection, schedule: Q01DX009 (ip), vehicle: saline with Tween-80
[8] = dose: 50.0 mg/kg/injection, schedule: Q04DX003 (ip), vehicle: saline
[9] = dose: 100.0 mg/kg/injection, schedule: Q04DX003 (ip), vehicle: saline
[10] = dose: 200.0 mg/kg/injection, schedule: Q04DX003 (ip), vehicle: saline
[11] = dose: 400.0 mg/kg/injection, schedule: Q04DX003 (ip), vehicle: saline
[12] = dose: 25.0 mg/kg/injection, schedule: Q04DX003 (ip), vehicle: saline with Tween-80

Measured: T/C

O=C(NCCCl)n1cncn1
inactive: dose: 100.0 mg/kg/injection, schedule: Q01DX009 (ip), vehicle: acetone 100 % of control | dose: 100.0 mg/kg/injection, schedule: Q04DX003 (ip), vehicle: acetone 102 % of control | dose: 200.0 mg/kg/injection, schedule: Q01DX009 (ip), vehicle: acetone 92 % of control | dose: 200.0 mg/kg/injection, schedule: Q04DX003 (ip), vehicle: acetone 102 % of control | dose: 400.0 mg/kg/injection, schedule: Q01DX009 (ip), vehicle: acetone 103 % of control | dose: 400.0 mg/kg/injection, schedule: Q04DX003 (ip), vehicle: acetone 102 % of control

Cn1c(=O)c2[nH]cnc2n(C)c1=O
inactive: dose: 18.25 mg/kg/injection, schedule: Q01DX Z (ip), vehicle: carboxymethylcellulose (CMC) 105 % of control | dose: 36.5 mg/kg/injection, schedule: Q01DX Z (ip), vehicle: carboxymethylcellulose (CMC) 107 % of control | dose: 63.0 mg/kg/injection, schedule: Q01DX Z (ip), vehicle: carboxymethylcellulose (CMC) 92 % of control | dose: 100.0 mg/kg/injection, schedule: Q01DX001 (ip), vehicle: carboxymethylcellulose (CMC) 98 % of control | dose: 126.0 mg/kg/injection, schedule: Q01DX Z (ip), vehicle: carboxymethylcellulose (CMC) 98 % of control | dose: 200.0 mg/kg/injection, schedule: Q01DX001 (ip), vehicle: carboxymethylcellulose (CMC) 98 % of control | dose: 400.0 mg/kg/injection, schedule: Q01DX001 (ip), vehicle: carboxymethylcellulose (CMC) 96 % of control

FC(F)(F)c1ccc(Cl)c(NC2=NCCS2)c1
inactive: dose: 100.0 mg/kg/injection, schedule: Q01DX001 (ip), vehicle: Klucel (hydroxypropylcellulose) (HPC) 114 % of control | [1] 97 % of control | dose: 200.0 mg/kg/injection, schedule: Q01DX001 (ip), vehicle: Klucel (hydroxypropylcellulose) (HPC) 103 % of control | [2] 98 % of control | dose: 400.0 mg/kg/injection, schedule: Q01DX001 (ip), vehicle: Klucel (hydroxypropylcellulose) (HPC) 97 % of control | [3] 88 % of control

CN(C)C(=S)SCc1c(Cl)c(Cl)c(Cl)c(Cl)c1Cl
inactive: [1] 105 % of control | [2] 100 % of control | [3] 94 % of control

O=c1[nH]cc(B(O)O)c(=O)[nH]1
inactive: [4] 94 % of control | [5] 98 % of control | [6] 98 % of control

O=C1OC(c2ccccc2)(c2ccccc2)Cc2ccccc21
inactive: [7] 97 % of control | [1] 93 % of control | dose: 200.0 mg/kg/injection, schedule: Q01DX009 (ip), vehicle: saline with Tween-80 106 % of control | dose: 400.0 mg/kg/injection, schedule: Q01DX009 (ip), vehicle: saline with Tween-80 95 % of control | [3] 86 % of control

CN1CCN(C(=O)c2ccc(Cl)c(Cl)c2)CC1
inactive: dose: 12.5 mg/kg/injection, schedule: Q01DX009 (ip), vehicle: saline with Tween-80 117 % of control | dose: 12.5 mg/kg/injection, schedule: Q04DX003 (ip), vehicle: saline 102 % of control | dose: 25.0 mg/kg/injection, schedule: Q01DX009 (ip), vehicle: saline with Tween-80 114 % of control | dose: 25.0 mg/kg/injection, schedule: Q04DX003 (ip), vehicle: saline 102 % of control | dose: 50.0 mg/kg/injection, schedule: Q01DX009 (ip), vehicle: saline with Tween-80 102 % of control and 115 % of control | [8] 108 % of control | dose: 75.0 mg/kg/injection, schedule: Q01DX009 (ip), vehicle: saline with Tween-80 115 % of control | [7] 95 % of control

CC(=O)OC(C(=O)NC(CC(C)C)C(=O)O)c1ccccc1 (centres undefined)
inactive: dose: 100.0 mg/kg/injection, schedule: Q01DX001 (ip), vehicle: acetone 98 % of control | dose: 200.0 mg/kg/injection, schedule: Q01DX001 (ip), vehicle: acetone 94 % of control | dose: 400.0 mg/kg/injection, schedule: Q01DX001 (ip), vehicle: acetone 98 % of control

Cn1c2ccccc2[n+]2c(N)scc12
inactive: dose: 12.5 mg/kg/injection, schedule: Q04DX002 (ip), vehicle: saline 101 % of control | dose: 25.0 mg/kg/injection, schedule: Q04DX002 (ip), vehicle: saline 115 % of control | dose: 50.0 mg/kg/injection, schedule: Q04DX002 (ip), vehicle: saline 96 % of control and 91 % of control | dose: 100.0 mg/kg/injection, schedule: Q04DX002 (ip), vehicle: saline 102 % of control

O=C(O)C1CCN1Cc1ccccc1 (centres undefined)
inactive: [9] 98 % of control | [10] 101 % of control | [11] 106 % of control

CCC(CCc1ccccn1)C(=O)c1ccccc1 (centres undefined)
inactive: dose: 75.0 mg/kg/injection, schedule: Q01DX001 (ip), vehicle: carboxymethylcellulose (CMC) 100 % of control | dose: 150.0 mg/kg/injection, schedule: Q01DX001 (ip), vehicle: carboxymethylcellulose (CMC) 96 % of control | dose: 300.0 mg/kg/injection, schedule: Q01DX001 (ip), vehicle: carboxymethylcellulose (CMC) 94 % of control

CC1CCCC(C)N1CC(O)c1ccccc1 (centres undefined)
inactive: dose: 6.25 mg/kg/injection, schedule: Q04DX003 (ip), vehicle: saline with Tween-80 94 % of control | dose: 12.5 mg/kg/injection, schedule: Q04DX003 (ip), vehicle: saline with Tween-80 97 % of control | [12] 97 % of control

COc1cc(NS(C)(=O)=O)ccc1N
inactive: dose: 100.0 mg/kg/injection, schedule: Q01DX009 (ip), vehicle: saline 103 % of control | [9] 107 % of control | dose: 200.0 mg/kg/injection, schedule: Q01DX009 (ip), vehicle: saline 98 % of control | [10] 103 % of control | [11] 102 % of control

C=CC1(CCC(C)C)C(=O)NC(=O)NC1=O
inactive: dose: 75.0 mg/kg/injection, schedule: Q01DX001 (ip), vehicle: saline 91 % of control | dose: 150.0 mg/kg/injection, schedule: Q01DX001 (ip), vehicle: saline 105 % of control | dose: 300.0 mg/kg/injection, schedule: Q01DX001 (ip), vehicle: saline 98 % of control

CCCCCCCCN(C)N=Nc1ccc(C(N)=O)cc1
inactive: dose: 118.0 mg/kg/injection, schedule: Q01DX009 (ip), vehicle: Klucel (hydroxypropylcellulose) (HPC) 122 % of control | dose: 175.0 mg/kg/injection, schedule: Q01DX009 (ip), vehicle: Klucel (hydroxypropylcellulose) (HPC) 115 % of control

Nc1cccnc1Cl
inactive: dose: 100.0 mg/kg/injection, schedule: Q01DX009 (ip), vehicle: alcohol 100 % of control | dose: 100.0 mg/kg/injection, schedule: Q04DX003 (ip), vehicle: other 92 % of control | dose: 200.0 mg/kg/injection, schedule: Q01DX009 (ip), vehicle: alcohol 96 % of control | dose: 200.0 mg/kg/injection, schedule: Q04DX003 (ip), vehicle: other 90 % of control | dose: 400.0 mg/kg/injection, schedule: Q01DX009 (ip), vehicle: alcohol 96 % of control | dose: 400.0 mg/kg/injection, schedule: Q04DX003 (ip), vehicle: other 93 % of control

OC1c2ccccc2CC1N1CCCCC1 (centres undefined)
inactive: dose: 100.0 mg/kg/injection, schedule: Q01DX001 (ip), vehicle: saline with Tween-80 97 % of control

Oc1ccc2c(c1)Cc1c-2nc2ccccc2c1Cl
inactive: dose: 50.0 mg/kg/injection, schedule: Q01DX001 (ip), vehicle: saline 97 % of control | [4] 98 % of control | [5] 97 % of control | [6] 93 % of control

CC1(C)N=C(N)N=C(N)N1c1ccc(OCCCc2ccccc2)c(N)c1
inactive: [12] 100 % of control | dose: 50.0 mg/kg/injection, schedule: Q04DX003 (ip), vehicle: saline with Tween-80 96 % of control

CCC1c2ccc3cc(OC)ccc3c2CC1CC(=O)O (centres undefined)
inactive: [9] 92 % of control | [10] 92 % of control | [11] 86 % of control

[Co].[NH-]CC[N-]CCO.[NH-]CC[N-]CCO
inactive: dose: 25.0 mg/kg/injection, schedule: Q01DX009 (ip), vehicle: saline 100 % of control | dose: 50.0 mg/kg/injection, schedule: Q01DX009 (ip), vehicle: saline 102 % of control | [8] 108 % of control | [9] 105 % of control
